{
  "source": "ChEMBL document CHEMBL3217527",
  "about": "“The Synthesis and Evaluation of Dihydroquinazolin-4-ones and Quinazolin-4-ones as Thyroid Stimulating Hormone Receptor Agonists” (Medchemcomm, 2011)",
  "data": [
    {"target": "Lutropin-choriogonadotropic hormone receptor (Homo sapiens, UniProt P22888)", "sequence (P22888 whole entry)": "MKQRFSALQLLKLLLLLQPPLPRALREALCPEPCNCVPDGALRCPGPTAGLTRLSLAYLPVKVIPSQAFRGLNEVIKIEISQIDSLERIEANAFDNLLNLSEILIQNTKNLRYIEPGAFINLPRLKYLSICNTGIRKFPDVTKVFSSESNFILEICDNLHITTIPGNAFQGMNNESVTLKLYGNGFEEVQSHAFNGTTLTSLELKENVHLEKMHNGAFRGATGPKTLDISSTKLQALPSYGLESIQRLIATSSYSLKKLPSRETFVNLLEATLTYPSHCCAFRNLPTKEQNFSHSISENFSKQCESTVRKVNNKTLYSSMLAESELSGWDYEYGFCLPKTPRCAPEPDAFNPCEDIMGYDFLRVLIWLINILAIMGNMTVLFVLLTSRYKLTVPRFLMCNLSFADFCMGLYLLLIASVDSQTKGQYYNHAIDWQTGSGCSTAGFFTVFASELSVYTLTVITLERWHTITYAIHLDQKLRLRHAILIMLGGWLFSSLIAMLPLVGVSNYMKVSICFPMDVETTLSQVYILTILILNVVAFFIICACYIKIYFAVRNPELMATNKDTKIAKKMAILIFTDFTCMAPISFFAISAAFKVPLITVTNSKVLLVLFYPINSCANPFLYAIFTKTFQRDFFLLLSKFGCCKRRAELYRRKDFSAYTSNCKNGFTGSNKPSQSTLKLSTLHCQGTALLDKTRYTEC", "assay": "Agonist activity at LHCGR (unknown origin)", "conditions": "not given", "units": {"EC50": "µM"}, "values": [
      {"smiles": "COc1cccc(-c2nc(SC)nc3sc(C(=O)NC(C)(C)C)c(N)c23)c1", "EC50": 0.22}
    ]},
    {"target": "T1, Thyrotropin receptor (Homo sapiens, UniProt P16473)", "T1 sequence (P16473 whole entry)": "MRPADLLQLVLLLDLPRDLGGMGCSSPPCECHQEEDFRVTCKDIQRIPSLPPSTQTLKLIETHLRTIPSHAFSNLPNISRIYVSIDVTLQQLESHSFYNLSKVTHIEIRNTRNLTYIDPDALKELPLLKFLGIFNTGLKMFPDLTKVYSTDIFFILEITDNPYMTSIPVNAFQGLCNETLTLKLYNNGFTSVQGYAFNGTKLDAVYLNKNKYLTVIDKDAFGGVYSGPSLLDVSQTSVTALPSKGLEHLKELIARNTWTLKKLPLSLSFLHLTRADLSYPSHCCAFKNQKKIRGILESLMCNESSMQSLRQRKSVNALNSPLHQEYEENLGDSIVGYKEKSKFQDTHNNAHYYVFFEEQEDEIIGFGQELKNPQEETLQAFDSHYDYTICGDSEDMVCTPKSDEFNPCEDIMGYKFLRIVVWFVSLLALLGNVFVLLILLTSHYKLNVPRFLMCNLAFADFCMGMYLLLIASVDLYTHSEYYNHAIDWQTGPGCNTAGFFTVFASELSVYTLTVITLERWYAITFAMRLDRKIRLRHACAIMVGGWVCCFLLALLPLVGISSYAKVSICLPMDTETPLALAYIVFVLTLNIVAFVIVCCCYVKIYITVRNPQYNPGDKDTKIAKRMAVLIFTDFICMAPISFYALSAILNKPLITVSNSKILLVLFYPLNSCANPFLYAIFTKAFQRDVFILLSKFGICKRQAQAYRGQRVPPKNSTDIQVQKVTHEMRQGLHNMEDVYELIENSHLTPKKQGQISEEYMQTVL", "assay": "Agonist activity at TSHR (unknown origin) transiently transfected HEK-EM293 cells assessed as cAMP level after 1 hr by ELISA", "format": "functional, cell-based", "conditions": "not given", "units": {"EC50": "µM"}, "values": [
      {"smiles": "COc1ccc(C2Nc3ccccc3C(=O)N2Cc2ccccc2)cc1COc1cccc(NC(C)=O)c1", "note": "(configuration not stated)", "EC50": 4.34},
      {"smiles": "CCCCN1C(=O)c2ccccc2NC1c1ccc(OC)c(COc2ccc(NC(C)=O)cc2)c1", "note": "(configuration not stated)", "EC50": 0.83},
      {"smiles": "COc1ccc(C2Nc3cccc(O)c3C(=O)N2Cc2ccccc2)cc1COc1ccc(NC(C)=O)cc1", "note": "(configuration not stated)", "EC50": 0.09},
      {"smiles": "COc1ccc(C2Nc3cccc(F)c3C(=O)N2Cc2ccccc2)cc1COc1ccc(NC(C)=O)cc1", "note": "(configuration not stated)", "EC50": 0.28},
      {"smiles": "COc1ccc(C2Nc3ccccc3C(=O)N2Cc2ccco2)cc1COc1ccc(NC(C)=O)cc1", "note": "(configuration not stated)", "EC50": 1.16},
      {"smiles": "COc1ccc(C2Nc3ccccc3C(=O)N2Cc2ccncc2)cc1COc1ccc(NC(C)=O)cc1", "note": "(configuration not stated)", "EC50": 3.98},
      {"smiles": "CC(=O)Nc1ccc(OCc2cccc(C3Nc4ccccc4C(=O)N3Cc3ccccc3)c2)cc1", "note": "(configuration not stated)", "EC50": 1.86},
      {"smiles": "COc1ccc(C2Nc3cccc(OC)c3C(=O)N2Cc2ccccc2)cc1COc1ccc(NC(C)=O)cc1", "note": "(configuration not stated)", "EC50": 4.48},
      {"smiles": "COc1ccc(-c2nc3ccccc3c(=O)n2Cc2ccco2)cc1COc1ccc(NC(C)=O)cc1", "EC50": 0.93},
      {"smiles": "COc1ccc(-c2nc3cccc(O)c3c(=O)n2Cc2ccccc2)cc1COc1ccc(NC(C)=O)cc1", "EC50": 0.55},
      {"smiles": "COc1ccc(-c2nc3ccccc3c(=O)n2Cc2ccccc2)cc1COc1ccc(NC(C)=O)cc1", "EC50": 0.96},
      {"smiles": "COc1ccc(OCc2cc(C3Nc4ccccc4C(=O)N3Cc3ccccc3)ccc2OC)cc1", "note": "(configuration not stated)", "EC50": 2.16},
      {"smiles": "COc1ccc(C2Nc3ccccc3C(=O)N2Cc2ccccc2)cc1CSc1ccc(NC(C)=O)cc1", "note": "(configuration not stated)", "EC50": 0.08},
      {"smiles": "COc1ccc(C2Nc3ccccc3C(=O)N2Cc2ccccc2)cc1COc1ccc(NC(C)=O)cc1", "note": "(configuration not stated)", "EC50": 0.29},
      {"smiles": "COc1ccc(C2Nc3ccccc3C(=O)N2Cc2ccccc2)cc1COc1ccccc1", "note": "(configuration not stated)", "EC50": 2.57},
      {"smiles": "COc1ccc(C2Nc3cccc(O)c3C(=O)N2Cc2ccccc2)cc1CSc1ccc(NC(C)=O)cc1", "note": "(configuration not stated)", "EC50": 0.018},
      {"smiles": "COc1ccc(C2Nc3ccccc3C(=O)N2CCc2ccccc2)cc1COc1ccc(NC(C)=O)cc1", "note": "(configuration not stated)", "EC50": 0.43},
      {"smiles": "COc1ccc(C2Nc3ccc(O)cc3C(=O)N2Cc2ccccc2)cc1COc1ccc(NC(C)=O)cc1", "note": "(configuration not stated)", "EC50": 0.33},
      {"smiles": "COc1ccc(C2Nc3ccccc3C(=O)N2c2ccccc2)cc1COc1ccc(NC(C)=O)cc1", "note": "(configuration not stated)", "EC50": 5.09}
    ]},
    {"target": "T1, Thyrotropin receptor", "assay": "Agonist activity at TSHR (unknown origin)", "conditions": "not given", "units": {"EC50": "µM"}, "values": [
      {"smiles": "COc1cccc(-c2nc(SC)nc3sc(C(=O)NC(C)(C)C)c(N)c23)c1", "EC50": 7.7}
    ]},
    {"test_system": "not listed separately", "assay": "Half life in acidic aqueous conditions at pH 2", "format": "physicochemical", "conditions": "acidic aqueous solution", "units": {"half-life": "h"}, "values": [
      {"smiles": "COc1ccc(C2Nc3cccc(O)c3C(=O)N2Cc2ccccc2)cc1COc1ccc(NC(C)=O)cc1", "note": "(configuration not stated)", "half-life": 3}
    ]}
  ]
}
